The assay deals with beet armyworm (Spodoptera exigua). The experiment in a line: Insecticidal test for beet armyworm, treated diet surface. Format: in vivo. The settings on record: 100 μg/cm^2 on diet surface, first instar larvae, 32 insects per treatment, observations 24, 48 and 96 hours. The method, then:
The compounds identified in Table 8 were prepared according to the previous methods and were tested against beet armyworm and corn earworm as follows:
Insecticidal Test for Beet Armyworm (Spodoptera exigua).
To prepare the test solution, the test compound was Formulated at 3499 ppm in solution as 5 mg compound/1.429 mL of 9 parts acetone: 1 part deionized H2O and vortexed to homogenize. 50 μL of the 3499 ppm (equivalent to 100 μg/cm^2 dose on diet surface area) test solution was pipetted upon the surface of 1 mL of solidified cool Southland Products Incorporated Beet Armyworm Diet (201 Stuart Island Road Lake Village, Ark. 71653) using an Eppendorf Repeater Plus with a 1 mL pipette tip. All pipetting of treatments was done in a Labconco Hood. Thirty minutes were allowed for the acetone to evaporate leaving a dose of 100 μg/cm^2 on the surface of the artificial diet. Two 24 hour old first instar Beet Armyworm (Spodoptera Exigua) larvae were placed in each well of the 128 well Bio-BA 128 Bioassay trays (CD International, Pitman, N.J., 08071, USA) using a #0 fine camel hair paint brush. Bioassay trays were sectioned into treatment groups of 8 with 16 replicates per treatment group (32 insects per treatment). Trays containing the treated diet and larvae were covered with a Bio-CV-16 cover (CD International, Pitman, N.J., 08071, USA) and then placed on a rack under florescent lights at 27° C., 20% relative humidity (RH) in the room, and 16 hr light: 8 hr dark for 96 hours. Observations were made 24, 48 and 96 hours after treatment and infestation. The number of insects dead were counted out of the 32 insects total per treatment and the results are given in a table as a percent mortality at a dose of 100 μg/cm^2. When finished, the tray was moved to the −5° C. freezer and left for 24 hr to insure mortality of the remaining S. exigua. After 24 hours, dispose of entire tray into waste bin.
Keys to the table: Mortality refers to activity against beet army worm (Spodoptera exigua) as defined above at the concentration of 100 μg/cm^2 (A=76-100% mortality, B=51-75% mortality, C=26-50% mortality and D=0-25% mortality).
`FC(F)(F)Oc1ccc(C=NNc2nc(Nc3ccc(Cl)cc3)nc(-c3ccc(OC(F)(F)F)cc3)n2)cc1` [Example 3, N-(4-chlorophenyl)-4-(2-(4-(trifluoromethoxy)benzylidene)hydrazinyl)-6-(4-(trifluoromethoxy)phenyl)-1,3,5-triazin-2-amine] yielded a mortality at 100 µg/cm2 of 26 to 50%.

In turn, `Fc1ccccc1-c1nc(NN=Cc2ccc(OC(F)(F)F)cc2)nc(Nc2ccc(Cl)nc2)n1` [Example 42, N-(6-chloropyridin-3-yl)-4-(2-fluorophenyl)-6-(2-(4-(trifluoromethoxy)benzylidene)hydrazinyl)-1,3,5-triazin-2-amine] yielded a mortality at 100 µg/cm2 of 76 to 100%. Then `FC(F)(F)Oc1ccc(C=NNc2nc(Nc3ccc(Cl)cc3)nc(-c3c(Cl)cccc3Cl)n2)cc1` [Example 14, N-(4-chlorophenyl)-4-(2,6-dichlorophenyl)-6-(2-(4-(trifluoromethoxy)benzylidene)hydrazinyl)-1,3,5-triazin-2-amine], with 51 to 75%; and `Fc1ccc(Nc2nc(NN=Cc3ccc(OC(F)(F)F)cc3)nc(-c3c(F)cccc3F)n2)cc1C(F)(F)F` [Example 5, 4-(2,6-difluorophenyl)-N-(4-fluoro-3-(trifluoromethyl)phenyl)-6-(2-(4-(trifluoromethoxy)benzylidene)hydrazinyl)-1,3,5-triazin-2-amine], with 26 to 50%.

For `CN(C)Nc1nc(NN=Cc2ccc(OC(F)(F)F)cc2)nc(-c2c(F)cccc2Cl)n1` [Example 25, 2-(2-chloro-6-fluorophenyl)-4-(2,2-dimethylhydrazinyl)-6-(2-(4-(trifluoromethoxy)benzylidene)hydrazinyl)-1,3,5-triazine], the mortality at 100 µg/cm2 lay within 76 to 100%. The value for `FC(F)(F)Oc1ccc(C=NNc2nc(NCc3ccc(Cl)cc3)cc(-c3ccccc3)n2)cc1` [Example 61, N-(4-chlorobenzyl)-6-phenyl-2-(2-(4-(trifluoromethoxy)benzylidene)hydrazinyl)pyrimidin-4-amine] was 76 to 100%; that for `FC(F)(F)Oc1ccc(C=NNc2nc(Nc3ccc(Cl)cc3)nc(-c3ccc(Cl)c(Cl)c3)n2)cc1` [Example 32, N-(4-chlorophenyl)-4-(3,4-dichlorophenyl)-6-(2-(4-(trifluoromethoxy)benzylidene)hydrazinyl)-1,3,5-triazin-2-amine] was 0 to 25%; that for `Fc1cccc(Cl)c1-c1nc(NN=Cc2ccc(OC(F)(F)F)cc2)nc(Nc2cc(Cl)cc(Cl)c2)n1` [Example 39, 4-(2-chloro-6-fluorophenyl)-N-(3,5-dichlorophenyl)-6-(2-(4-(trifluoromethoxy)benzylidene)hydrazinyl)-1,3,5-triazin-2-amine] was 76 to 100%. Then `FC(F)(F)Oc1ccc(C=NNc2nc(Nc3ccc(Cl)nc3)cc(-c3ccccc3)n2)cc1` [Example 47, N-(6-chloropyridin-3-yl)-6-phenyl-2-(2-(4-(trifluoromethoxy)benzylidene)hydrazinyl)pyrimidin-4-amine], with 0 to 25%; and `Fc1cccc(Cl)c1C=NNc1nc(Nc2ccc(Cl)cc2)nc(-c2ccc(OC(F)(F)F)cc2)n1` [Example 48, 4-(2-(2-chloro-6-fluorobenzylidene)hydrazinyl)-N-(4-chlorophenyl)-6-(4-(trifluoromethoxy)phenyl)-1,3,5-triazin-2-amine], with 76 to 100%. For `FC(F)(F)Oc1ccc(C=NNc2nc(Nc3ccc(Cl)nc3)nc(-c3c(Cl)cccc3Cl)n2)cc1` [Example 16, N-(6-chloropyridin-3-yl)-4-(2,6-dichlorophenyl)-6-(2-(4-(trifluoromethoxy)benzylidene)hydrazinyl)-1,3,5-triazin-2-amine], the mortality at 100 µg/cm2 lay within 76 to 100%. Turning to `Fc1cccc(F)c1-c1nc(NN=Cc2ccc(OC(F)(F)F)cc2)nc(Nc2cccc(C(F)(F)F)c2)n1` [Example 7, 4-(2,6-difluorophenyl)-6-(2-(4-(trifluoromethoxy)benzylidene)hydrazinyl)-N-(3-(trifluoromethyl)phenyl)-1,3,5-triazin-2-amine], the mortality at 100 µg/cm2 is 0 to 25%.

(Values after patent US8785630B2, “Insecticidal triazines and pyrimidines” (Vestaron Corporation, priority 2011, dated 2014).)
